# From patent publication US20250002450A1, “CATIONIC STEROID COMPOUNDS, METHOD OF OBTAINING THEREOF, FORMULATIONS COMPRISING THEREOF AND THEIR USES” (UNIVERSIDADE DO PORTO, priority 2021, published 2025)
# Read-outs that look alike come from different tables or passages of the source.
# Legend:
# E. faecalis B3/101 (VRE) = assay: Antibacterial MIC/MBC (broth microdilution); format: cell-based, Enterococcus faecalis; conditions: for antibacterial activity (in words): E. faecalis B3/101; for MBC / MIC: E. faecalis B3/101 (VRE)
# Description: (§1) Twelve reference bacterial strains and nine MDR clinically relevant bacterial strains were used in this study. Gram-negative bacteria comprised reference strains E. coli ATCC 25922, K. pneumoniae ATCC 13883, Salmonella enterica serovar Typhimurium CECT 443, P. aeruginosa ATCC 27853, A. baumannii ATCC 19606, C. jejuni ATCC 33560 (ATCC—American Type Culture Collection; CECT—Colección Espanola de Cultivos Tipo); clinical isolates E. coli SA/2, an extended-spectrum β-lactamase (ESBL)-producing strain and P. aeruginosa 33b, a pan-drug-resistant isolate; and animal isolates C. jejuni P5/4, a ciprofloxacin-resistant strain, C. jejuni 4432, C. jejuni 4433, C. jejuni 4448, and E. coli 2252, a COL-resistant strain [42]. Gram-positive strains included S. aureus ATCC 29213, E. faecalis ATCC 29212, S. pyogenes ATCC 19615, and environmental isolates methicillin-resistant S. aureus (MRSA) 66/1 [43], and VAN-resistant enterococci (VRE) E. faecalis B3/101 [44]. Gram-negative fish pathogens Yersinia ruckeri ATCC 29473, Listonella anguillarum ATCC 1924, and Tenacibaculum maritimum ATCC 43397 were also included.
# (§2) Strains were kept in Trypto-Casein Soy agar (TSA—Biokar Diagnostics, Allone, Beauvais, France) slants and, before each assay, were sub-cultured in Mueller-Hinton agar (MHA—Biokar Diagnostics, Allone, Beauvais, France). Y. ruckeri ATCC 29473 and L. anguillarum ATCC 1924 were kept in Nutrient Agar (Condalab, Madrid, Spain) and T. maritimum ATCC 43397 was kept in TMM agar (Condalab, Madrid, Spain), and were sub-cultured in the respective culture media before each assay. For S. pyogenes ATCC 19615, CAMHB was supplemented with 3.75% lysed horse blood (LBH—Oxoid, Basingstoke, England), whereas for C. jejuni it was supplemented with 2.5% LHB. Colony-forming unit counts of the inoculum were conducted to determine the initial inoculum size (which should be approximately 5×10^5 CFU/mL). Sterility and growth controls were included in each assay. The 96-well U-shaped untreated polystyrene microtiter plates were incubated for 20 h at 37 degrees C. (42 degrees C. for C. jejuni, in a microaerophilic atmosphere) and the minimal inhibitory concentration (MIC) was determined as the lowest concentration of compound that prevented visible growth. The minimal bactericidal concentration (MBC) was determined by spreading 100 μL of the content of the wells with no visible growth on MH plates. The MBC was determined as the lowest concentration of compound that killed 99.9% of the initial inoculum after overnight incubation at 37 degrees C. Two independent assays were performed for reference and MDR strains.
# (§3) An initial screening of the antibacterial activity of the compounds was performed by the Kirby-Bauer disk diffusion method, as recommended by the Clinical and Laboratory Standards Institute (CLSI). Briefly, sterile 6 mm blank paper disks (Oxoid, Basingstoke, England) impregnated with 15 μg of each compound were placed on inoculated MH agar plates. A blank disk with dimethylsulfoxide (DMSO) was used as a negative control. MH inoculated plates were incubated for 18-20 h at 37 degrees C. At the end of incubation, the inhibition halos where measured. The MIC was used to determine the antibacterial activity of each compound, in accordance with the recommendations of the CLSI. Two-fold serial dilutions of the compounds were prepared in Mueller-Hinton Broth 2 (MHB2—Sigma-Aldrich, St. Louis, MO, USA) within the concentration range of 0.062-64 μg/mL. CTX ranging between 0.031-16 μg/mL was used as a control. Sterility and growth controls were included in each assay. Purity checks and colony counts of the inoculum suspensions were also performed in order to ensure that the final inoculum density closely approximates the intended number (5×10^5 CFU/mL). The MIC was determined as the lowest concentration of compound that inhibited growth of the bacteria. The MBC was assessed by spreading 10 μL of culture collected from wells showing no visible growth on MH agar plates. […]
# [1] = system: Enterococcuss faecalis ATCC 29212; assay: Antibacterial MIC/MBC (broth microdilution); format: cell-based, Enterococcus faecalis; conditions: for antibacterial activity (in words): E. faecalis ATCC 29212; for MBC / MIC: Enterococcuss faecalis ATCC 29212
# Description: as §1, §2, §3
# [2] = system: Tenacibaculum maritimum ATCC 43397; assay: Antibacterial disk diffusion; format: cell-based
# Description: as §1, §2, §3
# [3] = system: Yersinia ruckeri ATCC 29473; assay: Antibacterial MIC/MBC (broth microdilution); format: cell-based
# Description: as §1, §2, §3
# [4] = system: Salmonella enterica serovar Typhimurium CECT 443; assay: Antibacterial MIC/MBC (broth microdilution); format: cell-based
# Description: as §1, §2, §3
# [5] = system: Staphylococcus aureus ATCC 29213; assay: Antibacterial MIC/MBC (broth microdilution); format: cell-based
# Description: as §1, §2, §3
# [6] = system: Klebsiella pneumoniae ATCC 13883; assay: Antibacterial MIC/MBC (broth microdilution); format: cell-based; conditions: for MBC / MIC: Klebsiella pneumoniae ATCC 13883
# Description: as §1, §2, §3
# [7] = system: Campylobacter jejuni ATCC 33560; assay: Antibacterial MIC/MBC (broth microdilution); format: cell-based; conditions: for MBC / MIC: Campylobacter jejuni ATCC 33560
# Description: as §1, §2, §3
# [8] = system: Listonella anguilarum ATCC 1924; assay: Antibacterial MIC/MBC (broth microdilution); format: cell-based; conditions: for antibacterial activity (in words): Listonella anguilarum; for MBC / MIC: Listonella anguilarum ATCC 1924
# Description: as §1, §2, §3
# S. aureus 66/1 (MRSA) = assay: Antibacterial MIC/MBC (broth microdilution); format: cell-based, Staphylococcus aureus
# Description: as §1, §2, §3
# C. jejuni P5/4 = assay: Antibacterial MIC/MBC (broth microdilution); format: cell-based, Campylobacter jejuni
# Description: as §1, §2, §3
# C. jejuni 4432 = assay: Antibacterial MIC/MBC (broth microdilution); format: cell-based, Campylobacter jejuni
# Description: as §1, §2, §3
# C. jejuni 4433 = assay: Antibacterial MIC/MBC (broth microdilution); format: cell-based, Campylobacter jejuni
# Description: as §1, §2, §3
# C. jejuni 4448 = assay: Antibacterial MIC/MBC (broth microdilution); format: cell-based, Campylobacter jejuni
# Description: as §1, §2, §3
# E. coli SA/2 (ESBL) = assay: Antibacterial MIC/MBC (broth microdilution); format: cell-based, Escherichia coli
# Description: as §1, §2, §3
# [9] = system: E. coli 2252 (COL-resistant); assay: Antibacterial MIC/MBC (broth microdilution); format: cell-based, Escherichia coli
# Description: as §1, §2, §3
# [10] = Campylobacter jejuni, read-out: MBC
# [11] = Campylobacter jejuni, read-out: MIC
smiles,measurement,setting,value
"C[C@H](CCC(=O)N1CCN(C(=O)CC[C@H](C)[C@@H]2CC[C@@H]3[C@H]4CC[C@H]5C[C@@H](O)CC[C@@]5(C)[C@@H]4C[C@@H](O)[C@]32C)CC1)[C@H]1CC[C@H]2[C@@H]3CC[C@@H]4C[C@H](O)CC[C@]4(C)[C@H]3C[C@H](O)[C@]12C [Compound 4, (R)-4-((3R,5R,8R,9S,10S,12S,13R,14S,17R)-3,12-dihydroxy-10,13-dimethylhexadecahydro-1H-cyclopenta[a]phenanthren-17-yl)-1-(4-((S)-4-((3S,5S,8S,9R,10R,12R,13S,14R,17S)-3,12-dihydroxy-10,13-dimethylhexadecahydro-1H-cyclopenta[a]phenanthren-17-yl)pentanoyl)piperazin-1-yl) pentan-1-one]",antibacterial activity (in words),E. faecalis B3/101 (VRE),displayed the same effect
same,MBC,"E. faecalis B3/101 (VRE); Enterococcus faecalis, read-out: MBC",> 64 µg/mL
same,MIC,"E. faecalis B3/101 (VRE); Enterococcus faecalis, read-out: MIC",64 µg/mL
same,antibacterial activity (in words),[1],exhibited antimicrobial activity
same,MBC,"[1]; Enterococcus faecalis, ATCC29212, read-out: MBC",64 µg/mL
same,MIC,"[1]; Enterococcus faecalis, ATCC29212, read-out: MIC",64 µg/mL
same,Inhibition zone diameter (disk diffusion),"[2]; Tenacibaculum maritimum ATCC 43397, footnote *",10 mm
same,antibacterial activity (in words),[3],displayed antibacterial activity
same,MBC,"[3]; ATCC29473, read-out: MBC",64 µg/mL
same,MIC,"[3]; ATCC29473, read-out: MIC",64 µg/mL
same,antibacterial activity (in words),[4],exhibited antimicrobial activity
same,MBC,[4]; read-out: MBC,64 µg/mL
same,MIC,[4]; read-out: MIC,64 µg/mL
same,MBC,"[5]; ATCC29213, read-out: MBC",> 64 µg/mL
same,MIC,"[5]; ATCC29213, read-out: MIC",64 µg/mL
same,MBC,"[6]; ATCC13883, read-out: MBC",> 64 µg/mL
same,MIC,"[6]; ATCC13883, read-out: MIC",> 64 µg/mL
same,MBC,"[7]; ATCC33560, read-out: MBC",> 64 µg/mL
same,MIC,"[7]; ATCC33560, read-out: MIC",> 64 µg/mL
same,antibacterial activity (in words),[8],active
same,MBC,[8]; read-out: MBC,32 µg/mL
same,MIC,[8]; read-out: MIC,32 µg/mL
same,MBC,"S. aureus 66/1 (MRSA); Staphylococcus aureus, read-out: MBC",> 64 µg/mL
same,MIC,"S. aureus 66/1 (MRSA); Staphylococcus aureus, read-out: MIC",64 µg/mL
same,MBC,C. jejuni P5/4; [10],> 64 µg/mL
same,MIC,C. jejuni P5/4; [11],> 64 µg/mL
same,MBC,C. jejuni 4432; [10],> 64 µg/mL
same,MIC,C. jejuni 4432; [11],> 64 µg/mL
same,MBC,C. jejuni 4433; [10],> 64 µg/mL
same,MIC,C. jejuni 4433; [11],> 64 µg/mL
same,MBC,C. jejuni 4448; [10],> 64 µg/mL
same,MIC,C. jejuni 4448; [11],> 64 µg/mL
same,MBC,E. coli SA/2 (ESBL); Escherichia coli,> 64 µg/mL
same,MIC,E. coli SA/2 (ESBL); Escherichia coli,> 64 µg/mL
same,MBC,"[9]; Escherichia coli, E. coli 2252 (COL-resistant), read-out: MBC",> 64 µg/mL
same,MIC,"[9]; Escherichia coli, E. coli 2252 (COL-resistant), read-out: MIC",> 64 µg/mL
"C[C@H](CCC(=O)NCCN)[C@H]1CC[C@H]2[C@@H]3CC[C@@H]4C[C@H](O)CC[C@]4(C)[C@H]3C[C@H](O)[C@]12C [Compound 1, (R)—N-(2-aminoethyl)-4-((3R,5R,8R,9S,10S,12S,13R,14S,17R)-3,12-dihydroxy-10,13-dimethylhexadecahydro-1H-cyclopenta[a]phenanthren-17-yl) pentanamida]",antibacterial activity (in words),E. faecalis B3/101 (VRE),displayed the same effect
same,MBC,E. faecalis B3/101 (VRE),32 µg/mL
same,MIC,E. faecalis B3/101 (VRE),32 µg/mL
same,antibacterial activity (in words),[1],exhibited antimicrobial activity
same,MBC,[1],32 µg/mL
same,MIC,[1],16 µg/mL
same,Disk diffusion,[2]; Tenacibaculum maritimum ATCC 43397,20 mm
same,MBC,[3],32 µg/mL
same,MIC,[3],16 µg/mL
same,antibacterial activity (in words),[3],displayed antibacterial activity
same,MBC,[4],16 µg/mL
same,MIC,[4],16 µg/mL
same,antibacterial activity (in words),[4],exhibited antimicrobial activity
same,MBC,[5],16 µg/mL
same,MIC,[5],16 µg/mL
same,antibacterial activity (in words),[6]; K. pneumoniae ATCC 13883,active
same,MBC,[6],64 µg/mL
same,MIC,[6],64 µg/mL
same,antibacterial activity (in words),[7]; C. jejuni ATCC 33560,showed antimicrobial activity
same,MBC,[7],64 µg/mL
same,MIC,[7],64 µg/mL
same,antibacterial activity (in words),[8],active
same,MBC,[8],32 µg/mL
same,MIC,[8],16 µg/mL
same,MBC,S. aureus 66/1 (MRSA),32 µg/mL
same,MIC,S. aureus 66/1 (MRSA),32 µg/mL
same,MBC,C. jejuni P5/4,32 µg/mL
same,MIC,C. jejuni P5/4,32 µg/mL
same,antibacterial activity (in words),C. jejuni P5/4,active
same,MBC,C. jejuni 4432,64 µg/mL
same,MIC,C. jejuni 4432,64 µg/mL
same,antibacterial activity (in words),C. jejuni 4432,showed antimicrobial activity
same,MBC,C. jejuni 4433,64 µg/mL
same,MIC,C. jejuni 4433,64 µg/mL
same,antibacterial activity (in words),C. jejuni 4433,showed antimicrobial activity
same,MBC,C. jejuni 4448,64 µg/mL
same,MIC,C. jejuni 4448,64 µg/mL
same,antibacterial activity (in words),C. jejuni 4448,showed antimicrobial activity
same,antibacterial activity (in words),E. coli SA/2 (ESBL); E. coli SA/2,active
same,MBC,E. coli SA/2 (ESBL); E. coli SA/2 (ESBL),32 µg/mL
same,MIC,E. coli SA/2 (ESBL); E. coli SA/2 (ESBL),32 µg/mL
same,antibacterial activity (in words),[9]; E. coli 2252,active
same,MIC,[9]; E. coli 2252 (COL-resistant),64 µg/mL
